Results: PubChem BioAssay (NCI)
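In this assay, cells in 96-well plates receive the compound at five concentrations for 48 hours. Endpoints are linearly interpolated between the surrounding concentrations. TGI: total growth inhibition.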

How the values were obtained:
Test in all cases: NCI-60 cell line screen, 48 h
SK-MEL-28 melanoma = tested on: SK-MEL-28 melanoma
BT-549 breast = tested on: BT-549 breast
LOX IMVI melanoma = tested on: LOX IMVI melanoma
CCRF-CEM leukemia = tested on: CCRF-CEM leukemia
SK-MEL-5 melanoma = tested on: SK-MEL-5 melanoma
SNB-75 CNS = tested on: SNB-75 CNS
UO-31 renal = tested on: UO-31 renal
SN12C renal = tested on: SN12C renal
HT29 colon = tested on: HT29 colon
SK-OV-3 ovarian = tested on: SK-OV-3 ovarian
NCI-H23 lung = tested on: NCI-H23 lung

Structure (SMILES)	TGI (SK-MEL-28 melanoma) [µM]	TGI (BT-549 breast) [µM]	TGI (LOX IMVI melanoma) [µM]	TGI (CCRF-CEM leukemia) [µM]	TGI (SK-MEL-5 melanoma) [µM]	TGI (SNB-75 CNS) [µM]	TGI (UO-31 renal) [µM]	TGI (SN12C renal) [µM]	TGI (HT29 colon) [µM]	TGI (SK-OV-3 ovarian) [µM]	TGI (NCI-H23 lung) [µM]
O=C(Nc1ccc(N2C(=O)CSC2c2ccccc2O)cc1)c1ccc(N2C(=O)CSC2c2ccccc2O)cc1 (centres undefined)	> 100	> 100	> 100	> 100	> 100	82.4	> 100	> 100	> 100	62.3	> 100
O=c1[nH]cc(NCCCl)c(=O)[nH]1	> 100	> 100	> 100	> 100	> 100	> 100	> 100	> 100	> 100	> 100	> 100
Oc1cc(Cc2ccccc2)c(Cc2ccccc2)cc1O	> 10	> 10	> 10	> 10	> 10	> 10	> 10	> 10	> 10	> 10	> 10
CC(C)(C)c1ccc(OCCOc2ccc(C(C)(C)C)cc2N)c(N)c1	> 100	> 100	> 100	> 100	> 100	> 100	> 100	> 100	> 100	> 100	> 100
O=C1c2cccc([N+](=O)[O-])c2C(=O)N1Cc1ccccc1	> 100	> 100	> 100	> 100	> 100	> 100	> 100	> 100	> 100	> 100	> 100
Cn1nc2ccc([N+](=O)[O-])c(Cn3nnc4ccccc43)c2n1	> 100	> 100	> 100	> 100	> 100	> 100	> 100	> 100	> 100	> 100	> 100
N#CN1C2CCC1CC(=O)C2	> 100	> 100	> 100	> 100	> 100	> 100	> 100	> 100	> 100	> 100	> 100
Cc1cc(C)nc(NS(=O)(=O)c2ccc(NC(=O)c3c4ccccc4nc4ccccc34)cc2)n1	> 100	> 100	> 100	> 100	> 100	> 100	> 100	> 100	> 100	> 100	> 100
CN(C)CC(O)c1ccc(Cl)c2ccccc12 (centres undefined)	36.3	> 100	> 66.6	53.8	31.4	> 89.1	> 62.2	> 100	> 100	> 100	> 100
